Results reported in patent US10034895B2 (priority 2017, dated 2018).

Columns and labels:
[1] = test system: HeLa cells (ATCC CCL-2); test: Trypan blue viability study of cultured HeLa cells
Description: (§1) Cells for culture were obtained from the Cell Culture Facility at Duke University. PLLA was microwave synthesized from L-lactic acid as previously reported. Lactic acid concentration was measured by tetrazolium indicator color test strips (Accuvin, LLC, Napa, Calif.) from the reaction of L-lactic acid and […] in the presence of lactate dehydrogenase. All cells were cultured at 37° C. and 5% CO2 in a HERA cell incubator (Kendro Laboratory Products, L.P., Newtown, Conn.). Media for cells was Minimum Essential Media with Earl's salts and L-Glutamine (Gibco, Life Technologies) with 10% fetal bovine serum and non-essential amino acids and sodium pyruvate. Antibiotics for experiment #2 were penicillin/streptomycin and for experiments #3-4 were penicillin/streptomycin/amphotericin B. All drug testing was performed in Costar 6 Well Culture Cluster plates (Corning, Corning, N.Y.). The trypan blue concentration was 0.4%.
(§2) HeLa cells (ATCC CCL-2) were cultured on six well plates. […] The cells were incubated for 12 hours, after which time they were stained with 1 ml trypan blue for two minutes. The media and trypan blue were aspirated from each well, and the cells were then placed under an inverted microscope for photography.

[2] = Stereocomplex reaction of L-lactic acid + D-lactic acid dimer (tetrazolium L-lactic acid test strips); details: room temperature, two minutes
Description: as §1
The reactions were carried out at room temperature and allowed to incubate for two minutes after which 20 microliters were applied to L-lactic acid test strips, and the results were read after two minutes.

[3] = test system: Normal human fibroblast cells (ATCC CCL-171); test: Trypan blue viability study of normal human fibroblast cells; details: for cytotoxicity of D-lactic acid dimer compared with L-lactic acid: cultured normal fibroblasts, FIGS. 13-16; for Cell characteristic: cells non-viable (trypan blue): normal fibroblasts, 12 hours
Description: as §1
as §2, with “Normal human fibroblast” for “HeLa”, “CCL-171)” for “CCL-2)”, “subcultured onto” for “cultured on”, “hours” for “hours,”

[4] = test system: Human retinoblastoma cells; test: Trypan blue viability study of human retinoblastoma cells (dose response); details: 12 hours
Description: (§3) Cells for culture were obtained from the Cell Culture Facility at Duke University. […] All cells were cultured at 37° C. and 5% CO2 in a HERA cell incubator (Kendro Laboratory Products, L.P., Newtown, Conn.). Media for cells was Minimum Essential Media with Earl's salts and L-Glutamine (Gibco, Life Technologies) with 10% fetal bovine serum and non-essential amino acids and sodium pyruvate. Antibiotics for experiment #2 were penicillin/streptomycin and for experiments #3-4 were penicillin/streptomycin/amphotericin B. All drug testing was performed in Costar 6 Well Culture Cluster plates (Corning, Corning, N.Y.). The trypan blue concentration was 0.4%.
(§4) Human retinoblastoma cells (ATCC C-33A) were cultured in six well plates. […] The cells were incubated for 12 hours after which time they were stained with 1 ml trypan blue for two minutes. The media and trypan blue were aspirated from each well, and the cells were examined with an inverted microscope for photography.

[5] = test system: Human retinoblastoma cells (ATCC C-33A); test: as above; details: conclusion of Experiment 3
Description: as §3, §4

Q: What does the source list for `C[C@@H](O)C(=O)O[C@H](C)C(=O)O` [D-lactic acid dimer]?
A: concentration at which cytotoxic when applied to HeLa cells ([1]; HeLa, conclusion of Experiment 2): ≥ 5000 µg/mL; cytotoxicity compared to PLLA ([1]; cultured HeLa cells, FIGS. 2 & 3): more cytotoxic than a mixture of PLLA oligomers; concentration at which selectively cytotoxic when locally applied to cancer cells ([1]; summary over cancer cells (HeLa and retinoblastoma)): 5000 to 6250 µg/mL; Tetrazolium indicator (L-lactic acid remaining) ([2]; 0.5 mg dimer in 40 microliters of 10 mM L-lactic acid): 80 mg/L; Tetrazolium indicator (L-lactic acid remaining) ([2]; 1.0 mg dimer in 40 microliters of 10 mM L-lactic acid): no color change; Tetrazolium indicator (L-lactic acid remaining) ([2]; 5.0 mg dimer in 40 microliters of 10 mM L-lactic acid): no color change; Tetrazolium indicator (L-lactic acid remaining) ([2]; 7.0 mg dimer in 40 microliters of 10 mM L-lactic acid): no color change; cytotoxicity of D-lactic acid dimer compared with L-lactic acid [3]: less cytotoxic on a molar basis than L-lactic acid; Cell characteristic: cells non-viable (trypan blue) ([3]; 1.50 mg in 1 ml media): 0% cells non-viable; Cell characteristic: cells non-viable (trypan blue) ([3]; 12.5 mg in 1 ml media): 100% cells non-viable; Cell characteristic: cells non-viable (trypan blue) ([3]; 25 mg in 1 ml media): 100% cells non-viable; Trypan blue staining for non-viable cells ([4]; 6.25 mg in 1 ml media): Thirty; Trypan blue staining for non-viable cells ([4]; 25 mg in 1 ml media): Fifty; effective cytotoxic dose / concentration on human retinoblastoma cells [5]: greater than 6.25 mg/ml

Q: With `C[C@H](O)C(=O)O` [L-lactic acid, reference compound] as the compound, how does the “cytotoxicity of D-lactic acid dimer compared with L-lactic acid” value [3] read?
A: more cytotoxic than D-lactic acid dimer
